The source of these data is patent publication US5368864A, “Formulation of oxypurinol and/or its alkali and alkaline earth salts” (Henning Berlin GmbH Chemie- und Pharmawerk, priority 1988, dated 1994).

The conditions of series [1]: cited from earlier work.
For series [2] the following is noted: associated with sparing solubility; cited from earlier work.
Series [3] can be described thus: Dissolution test (USP XXI dissolution tester) of oxypurinol sodium monohydrate and formulations in 0.1 N hydrochloric acid, spectrophotometric at 245 nm. The class given is physicochemical. Conditions: for Dissolved amount of active substance (cumulated values): 0.1 N HCl, 37° C. As for the experimental part:
The dispersion of solids containing oxypurinol was mixed with the adjuvants indicated, and pressed to give tablets having a content of 150 mg of active substance. Two tablets, corresponding to 300 mg of oxypurinol sodium monohydrate, were tested for liberation of active substance.
(§1) The forms according to the invention were tested for solubility and rate of dissolution, respectively, in comparison to crystalline oxypurinol sodium monohydrate finely powdered in a mortar.
United States Pharmacopoeia (USP XXI)
0.1 N hydrochloric acid
Measurements were effected spectrophotometrically at 245 nm.

A short description of series [4]: Solubility as a function of pH value and time as compared to crystalline active substance. The settings on record: solids dispersion is test 3; for solubility at 1 h: 60 minutes. It counts as physicochemical. On the procedure:
as §1
Solubility according to example 1 (test 3) as a function of pH value and
as compared to crystalline active substance (values in mg/liter)

A short description of series [5]: Solubility and pH of aqueous solutions (background statements). It counts as physicochemical.

As for `O=c1[nH]c(=O)c2c[nH]nc2[nH]1` [Oxypurinol, 4,6-dihydroxypyrazolo[3,4-d]pyrimidine], the “solubility in water and digestive juice” value in series [1] was “sparingly soluble”. Also, the absorbability result in series [2] is listed as “insufficient absorbability”.
Turning to `O=c1[nH]c(=O)c2c[nH]nc2[nH]1` [oxypurinol sodium monohydrate, Oxypurinol sodium monohydrate], the solubility at 5 min in series [3] (0.1 n hcl, after 5 minutes) stood at 43 µg/mL; in series [4] (pH = 1.5), 43 µg/mL; in series [4] (pH = 3.0) it was 81 µg/mL; in series [4] (pH = 4.5), 85 µg/mL; in series [4] (pH = 6.5), 243 µg/mL. Moreover, the solubility at 1 h in series [3] (0.1 n hcl, after 60 minutes) came to 142 µg/mL; in series [4] (pH = 3.0), 222 µg/mL; in series [4] (pH = 4.5) it was 243 µg/mL; in series [4] (pH = 6.5), 290 µg/mL. In addition, the solubility at 24 h in series [3] (0.1 n hcl, after 24 hours, read-out: maximum solubility) was about 280 µg/mL. For the same molecule, the solubility at 48 h in series [3] (0.1 n hcl, after another 24 hours, read-out: solubility as a constant for the substance) is about 260 µg/mL. Besides, the “Dissolved amount of active substance (cumulated values)” value was 43 mg/L in series [3] (5 min); 62 mg/L in series [3] (10 min); 88 mg/L in series [3] (20 min); 115 mg/L in series [3] (30 min); 126 mg/L in series [3] (45 min); 142 mg/L in series [3] (60 min). Besides, the “Dissolved amount of active substance (cumulated values)” value in series [3] (180 min) was 207 mg/L; in series [3] (24 hrs) it was 280 mg/L; in series [3] (48 hrs), 263 mg/L. Besides, the rate of dissolution result in series [3] (measurement time of 5 minutes) is “about 43 mg/5 min”. Besides, the solubility at 10 min in series [4] (pH = 1.5) turned out to be 62 µg/mL; in series [4] (pH = 3.0), 110 µg/mL; in series [4] (pH = 4.5) it was 110 µg/mL; in series [4] (pH = 6.5), 261 µg/mL. Besides, the “pH value of aqueous solutions” value in series [5] (aqueous solution) was 9.5. In addition, the solubility in series [5] (water, 25° C., read-out: concentration permitted in aqueous solutions) is about 15000 µg/mL.
